{"source": "patent US20230293535A1", "about": "“ERBB/BTK INHIBITORS” (Dizal (Jiangsu) Pharmaceutical Co., Ltd., priority 2018, published 2023)", "assay_type_in_all_cases": "cell-based", "key": {"[1]": {"molecular_target": "T1, human EGFR exon 20 H773_V774insNPH (Homo sapiens, UniProt P00533, INS773NPH)", "T1 construct": "host or cells: Ba/F3", "T1 sequence (P00533 with tags, fused parts or gaps INS773NPH)": "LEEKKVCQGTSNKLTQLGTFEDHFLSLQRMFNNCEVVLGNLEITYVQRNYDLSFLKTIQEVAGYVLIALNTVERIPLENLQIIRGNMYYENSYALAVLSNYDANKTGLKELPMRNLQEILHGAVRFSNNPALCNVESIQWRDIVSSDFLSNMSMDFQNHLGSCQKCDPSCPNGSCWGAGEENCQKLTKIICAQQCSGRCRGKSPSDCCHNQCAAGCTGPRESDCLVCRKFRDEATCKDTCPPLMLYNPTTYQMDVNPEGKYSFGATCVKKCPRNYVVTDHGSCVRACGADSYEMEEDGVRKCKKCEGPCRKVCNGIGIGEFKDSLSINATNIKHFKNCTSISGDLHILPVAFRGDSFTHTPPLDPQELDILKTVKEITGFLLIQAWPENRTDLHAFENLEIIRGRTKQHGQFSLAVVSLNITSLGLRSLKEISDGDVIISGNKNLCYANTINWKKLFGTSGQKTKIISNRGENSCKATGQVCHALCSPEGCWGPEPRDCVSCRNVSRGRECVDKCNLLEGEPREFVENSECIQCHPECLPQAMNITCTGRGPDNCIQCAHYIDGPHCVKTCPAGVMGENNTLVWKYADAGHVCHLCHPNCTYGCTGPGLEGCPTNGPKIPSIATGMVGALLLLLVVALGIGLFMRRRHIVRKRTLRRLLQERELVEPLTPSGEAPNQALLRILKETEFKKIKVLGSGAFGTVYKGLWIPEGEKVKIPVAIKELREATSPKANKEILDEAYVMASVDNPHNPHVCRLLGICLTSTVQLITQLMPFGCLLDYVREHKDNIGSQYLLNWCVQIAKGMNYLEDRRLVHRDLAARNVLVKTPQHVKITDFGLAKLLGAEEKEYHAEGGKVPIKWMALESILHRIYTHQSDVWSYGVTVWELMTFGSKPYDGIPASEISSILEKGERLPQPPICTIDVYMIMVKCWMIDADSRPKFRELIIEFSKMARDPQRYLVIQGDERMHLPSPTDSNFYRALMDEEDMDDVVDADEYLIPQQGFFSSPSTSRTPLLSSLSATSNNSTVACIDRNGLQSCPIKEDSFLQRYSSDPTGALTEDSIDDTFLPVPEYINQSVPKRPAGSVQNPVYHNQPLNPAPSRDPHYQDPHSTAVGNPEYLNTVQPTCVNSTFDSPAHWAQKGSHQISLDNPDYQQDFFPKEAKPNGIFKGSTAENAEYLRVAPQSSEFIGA", "assay": "EGFR Exon20 NPH insertion cellular phosphorylation inhibition (MSD pEGFR Y1068/total EGFR);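 note: IL3-independent Ba/F3 cells with constitutively phosphorylated EGFR, compound exposure at 37 °C under 5% CO2, electrochemiluminescent MSD measurement of the p-EGFR to total EGFR ratio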", "conditions": "Ba/F3 EGFR NPH ins cells, 4 h compound, p-EGFR(Y1068)/total EGFR", "protocol": "One day before the test, WT or mutant cells were seeded in 96 well plates at appropriate concentrations with corresponding growth media supplemented with 1% FBS, and incubated overnight. The next day, tested compounds at a series of concentrations were added into each individual well of the plates, and the plates were incubated for 4 h at 37° C. with 5% CO2.\nThe EGFR (Y1068) phosphorylation level (activity) of cells in each well were then measured with MSD kit named “MULTI-SPOT®96 4-Spot HB Prototype EGFR Triplex [sequence]: pEGFR(Tyr1068),pEGFR(Tyr1173), Total EGFR” according to the manufacturer’s instruction (MESO SCALE DISCOVERY, Cat# N45ZB-1). The assay is an electrochemiluminescent method for determining both phosphorylated and total EGFR of cells with an MSD SECTOR® Imager and the ratio of p-EGFR/total EGFR can be generated by the machine."}, "[2]": {"molecular_target": "T2, human EGFR exon 20 V769_D770insASV (Homo sapiens, UniProt P00533, INS769ASV)", "T2 construct": "expressed in transfected cells; host or cells: Ba/F3 (DSMZ ACC-300), lentiviral transduction, puromycin selection, IL3 depletion", "T2 sequence (P00533 with tags, fused parts or gaps INS769ASV)": "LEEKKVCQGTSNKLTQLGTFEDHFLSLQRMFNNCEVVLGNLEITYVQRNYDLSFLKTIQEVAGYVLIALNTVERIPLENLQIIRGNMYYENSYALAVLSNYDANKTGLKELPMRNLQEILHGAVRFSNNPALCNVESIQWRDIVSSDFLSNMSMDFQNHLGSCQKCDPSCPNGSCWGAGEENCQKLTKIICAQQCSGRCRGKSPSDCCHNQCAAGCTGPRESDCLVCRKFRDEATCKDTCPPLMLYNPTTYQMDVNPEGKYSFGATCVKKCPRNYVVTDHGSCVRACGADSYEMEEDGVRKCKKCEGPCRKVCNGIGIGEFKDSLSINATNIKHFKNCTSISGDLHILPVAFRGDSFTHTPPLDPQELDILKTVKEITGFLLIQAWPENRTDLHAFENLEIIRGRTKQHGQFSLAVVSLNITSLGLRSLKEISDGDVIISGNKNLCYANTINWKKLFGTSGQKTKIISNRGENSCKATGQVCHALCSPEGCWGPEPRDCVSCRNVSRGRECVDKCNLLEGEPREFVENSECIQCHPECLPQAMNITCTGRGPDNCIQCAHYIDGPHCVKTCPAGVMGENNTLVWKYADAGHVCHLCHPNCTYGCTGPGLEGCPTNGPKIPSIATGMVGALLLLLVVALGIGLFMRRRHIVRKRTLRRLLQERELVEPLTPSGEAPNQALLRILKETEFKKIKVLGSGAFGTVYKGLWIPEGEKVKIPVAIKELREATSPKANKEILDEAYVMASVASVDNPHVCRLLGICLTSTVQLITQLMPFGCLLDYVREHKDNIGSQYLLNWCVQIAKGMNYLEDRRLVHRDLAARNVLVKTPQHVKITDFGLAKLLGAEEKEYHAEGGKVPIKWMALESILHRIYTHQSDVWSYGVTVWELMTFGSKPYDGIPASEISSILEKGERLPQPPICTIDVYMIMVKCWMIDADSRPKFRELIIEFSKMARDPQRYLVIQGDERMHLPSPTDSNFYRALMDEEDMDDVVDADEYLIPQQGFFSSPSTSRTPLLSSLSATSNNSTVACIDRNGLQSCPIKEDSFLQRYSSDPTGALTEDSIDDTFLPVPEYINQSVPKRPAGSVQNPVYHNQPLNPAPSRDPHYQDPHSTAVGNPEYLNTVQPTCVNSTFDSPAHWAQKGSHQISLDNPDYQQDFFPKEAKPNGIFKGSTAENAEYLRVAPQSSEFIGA", "assay": "EGFR Exon20 ASV insertion cellular phosphorylation inhibition (MSD pEGFR Y1068/total EGFR);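 note: electrochemiluminescent readout on an MSD SECTOR Imager, IL3-independent transduced cells in medium with 1% FBS, compound concentration series at 37 °C and 5% CO2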", "conditions": "Ba/F3 EGFR ASV ins cells, 4 h compound, p-EGFR(Y1068)/total EGFR"}, "[3]": {"molecular_target": "T3, human Her2 exon 20 insertion mutation YVMA (Homo sapiens, UniProt P04626, INS775YVMA)", "T3 construct": "expressed in transfected cells; host or cells: NIH-3T3, lentiviral transduction, puromycin selection", "T3 sequence (P04626 with tags, fused parts or gaps INS775YVMA)": "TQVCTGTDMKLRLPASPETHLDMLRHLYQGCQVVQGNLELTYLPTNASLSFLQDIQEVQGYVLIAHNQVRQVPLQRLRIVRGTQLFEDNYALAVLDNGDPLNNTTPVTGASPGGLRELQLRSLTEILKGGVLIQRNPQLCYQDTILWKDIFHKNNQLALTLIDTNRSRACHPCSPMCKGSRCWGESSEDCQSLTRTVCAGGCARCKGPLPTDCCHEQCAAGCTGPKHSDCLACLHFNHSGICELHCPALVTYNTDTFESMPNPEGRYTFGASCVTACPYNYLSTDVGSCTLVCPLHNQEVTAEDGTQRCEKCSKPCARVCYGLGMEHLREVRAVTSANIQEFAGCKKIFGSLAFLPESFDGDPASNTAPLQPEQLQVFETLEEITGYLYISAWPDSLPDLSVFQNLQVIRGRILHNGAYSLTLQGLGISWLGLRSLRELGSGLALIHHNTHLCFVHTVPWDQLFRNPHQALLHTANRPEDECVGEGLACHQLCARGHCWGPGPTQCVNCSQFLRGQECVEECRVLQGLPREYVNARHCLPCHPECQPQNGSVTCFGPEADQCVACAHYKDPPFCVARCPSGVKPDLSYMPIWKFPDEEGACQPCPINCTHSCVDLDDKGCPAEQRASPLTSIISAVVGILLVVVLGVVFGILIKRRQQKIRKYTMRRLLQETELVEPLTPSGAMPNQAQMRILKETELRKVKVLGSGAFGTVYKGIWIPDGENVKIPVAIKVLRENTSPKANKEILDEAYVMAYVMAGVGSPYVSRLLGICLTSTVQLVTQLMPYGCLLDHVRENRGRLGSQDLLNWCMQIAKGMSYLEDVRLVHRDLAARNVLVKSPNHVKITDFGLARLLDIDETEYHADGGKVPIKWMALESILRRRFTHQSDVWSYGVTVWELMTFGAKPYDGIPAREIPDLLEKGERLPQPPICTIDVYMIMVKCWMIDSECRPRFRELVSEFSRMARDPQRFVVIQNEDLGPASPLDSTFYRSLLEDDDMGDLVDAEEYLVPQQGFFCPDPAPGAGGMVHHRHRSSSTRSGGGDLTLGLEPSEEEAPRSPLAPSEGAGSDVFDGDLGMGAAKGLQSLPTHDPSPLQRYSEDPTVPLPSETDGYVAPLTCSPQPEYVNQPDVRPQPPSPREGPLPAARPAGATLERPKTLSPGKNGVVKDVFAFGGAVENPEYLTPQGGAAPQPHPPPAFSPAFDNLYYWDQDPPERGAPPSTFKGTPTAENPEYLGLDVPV", "assay": "Her2 Exon 20 YVMA insertion cellular phosphorylation inhibition (MSD p-Her2 Y1248/total Her2);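 note: lentivirally transduced NIH-3T3 cells in 1% FBS medium, electrochemiluminescent MSD read-out, graded compound concentrations at 37 °C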", "conditions": "Her2 YVMAins cells, 4 h compound"}, "Ba/F3 EGFR NPH ins cells": {"test_system": "Ba/F3 EGFR NPH ins cells", "assay": "Cell proliferation, Ba/F3 EGFR NPH ins (CellTiter-Glo, 72 h);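 note: IL3-independent cells carrying constitutively phosphorylated EGFR, compound dilution series, viable cells quantified by ATP luminescence, growth relative to DMSO wells after subtracting pre-dosing (day 0) baseline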", "conditions": "Ba/F3 EGFR, 72 h"}, "Ba/F3 EGFR ASV ins cells": {"test_system": "Ba/F3 EGFR ASV ins cells", "assay": "Cell proliferation, Ba/F3 EGFR ASV ins (CellTiter-Glo, 72 h);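 note: IL3-independent Ba/F3 cells transduced with EGFR V769_D770insASV, cellular ATP luminescence after compound exposure, growth relative to DMSO control with the day-0 baseline reading subtracted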", "conditions": "Ba/F3 EGFR, 72 h"}, "[4]": {"test_system": "NCI-H1975 EGFR L858R/T790M cells", "assay": "Cell proliferation, NCI-H1975 EGFR L858R/T790M (CellTiter-Glo, 72 h);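 note: viable cells quantified by luciferase-based ATP luminescence, proliferation expressed relative to DMSO-treated wells (100%) after subtracting a parallel plate read at the time of dosing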", "conditions": "Homo sapiens, NCI-H1975, 72 h", "protocol": "(§1) WT or mutant cells were seeded in 384 well plates at appropriate concentrations with corresponding growth media supplemented with 10% FBS, for each experiment, identical plates were prepared in duplicates, and the plates were incubated overnight. On the next day, one of each duplicated plates was dosed with tested compounds at a series of concentrations, and another one of the duplicated plate was analysied for G0 value. The dosed plates were incubate for another 72 h at 37° C. with 5% CO2 and the number of viable cells in each well of the G0 plates or the dosed plates were measured by CellTiter-Glo® Luminescent Cell Viability Assay (Promega). This assay is a luminescent method for determining the number viable cells through measurement of cellular ATP concentration by detection of luciferase activity. Detection reagents (15 µl) was dispensed into per well, and the plates were incubate for 30 min at room temperature. Then, the luminescence in each well was measured using the Envision plate reader (PerkinElmer). The percentage of proliferation was calculated based on the formula: %Proliferation= 100 × (G3 value of sample well-Go value)/(G3 value of DMSO control-Go value)."}, "[5]": {"test_system": "Her2 exon 20 insertion YVMA transduced NIH-3T3 cell line", "assay": "Cell proliferation, Her2 YVMAins NIH-3T3 (CellTiter-Glo, 72 h);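 note: viable cells quantified by ATP luminescence, growth over a day-zero baseline plate expressed as percent of DMSO control growth, compound dilution series in 10% FBS medium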", "conditions": "Mus musculus, NIH3T3, 72 h"}, "WT EGFR cell line A-431": {"test_system": "WT EGFR cell line A-431", "assay": "Cell proliferation, WT EGFR A431 (CellTiter-Glo, 72 h);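 note: proliferation from a luminescent ATP viability signal, expressed as 100 × (treated minus time-zero plate) over (DMSO control minus time-zero plate), cells grown with 10% FBS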", "conditions": "Homo sapiens, A-431, 72 h", "protocol": "as §1"}, "OCI-LY-10 cells": {"test_system": "OCI-LY-10 cells", "assay": "BTK (wt) cell proliferation, OCI-LY-10 (CellTiter-Glo, 72 h);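 note: viable cells quantified via cellular ATP luminescence, proliferation given as percent of DMSO control after subtracting a duplicate plate read at time of dosing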", "conditions": "Homo sapiens, OCI-Ly10, 72 h, read-out: BTK WT OCI-LY-10 GI50"}, "TMD-8 cells": {"test_system": "TMD-8 cells", "assay": "BTK (wt) cell proliferation, TMD-8 (CellTiter-Glo, 72 h);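 note: viable cells quantified by ATP-based luminescence, proliferation expressed as percent of DMSO control after subtracting a time-zero baseline plate read at dosing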", "conditions": "Homo sapiens, TMD8, 72 h, read-out: BTK WT TMD-8 GI50", "protocol": "OCI-LY-10 at 3,750 cells/well, TMD-8 and Ri-1 at 2,000 cells/well, and DB at 1,250 cells/well, respectively, were sorted into 384-well plates in RPMI1640 medium with 10% FBS. After overnight incubation, all cells were incubated with compound at a series of concentrations. Meanwhile, a duplicated plate of each cell line was prepared for measuring G0 value. The dosed plates were further incubated for 72 hours and the number of viable cells was measured by CellTiter-Glo® Luminescent Cell Viability Assay (Promega), a luminescent method for determining the number of viable cells through measurement of cellular ATP concentration using Envision plate reader (PerkinElmer). The percentage of proliferation was calculated as: % Proliferation = 100 × (G3 value of sample well - G0 value)/(G3 value of DMSO control - G0 value)."}, "Ri-1 cells": {"test_system": "Ri-1 cells", "assay": "BTK (wt) cell proliferation, Ri-1 (CellTiter-Glo, 72 h);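 note: viable cells quantified as cellular ATP luminescence, proliferation normalized to a time-zero plate and the DMSO control, compounds tested across a dilution series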", "conditions": "Ri-1, 72 h, read-out: BTK WT Ri-1 GI50"}, "DB cells": {"test_system": "DB cells", "assay": "BTK (wt) cell proliferation, DB (CellTiter-Glo, 72 h);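 note: DB cells in 384-well plates given a dilution series of compound, viable cells read by ATP luminescence, growth expressed versus DMSO control after subtracting a time-zero plate reading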", "conditions": "Homo sapiens, DB, read-out: Non-BCR activated DB GI50"}, "[6]": {"conditions": "Ba/F3 EGFR NPH ins, 72 h proliferation, read-out: EGFR Exon20 NPH insertion GI50"}, "[7]": {"conditions": "Ba/F3 EGFR ASV ins, 72 h proliferation, read-out: EGFR Exon20 ASV insertion GI50"}, "[8]": {"conditions": "NCI-H1975, 72 h proliferation, read-out: EGFR L858R and T790M mutation GI50"}, "[9]": {"conditions": "Her2 YVMAins cells, 72 h proliferation, read-out: Her2 Exon 20 YVMA insertion GI50"}, "[10]": {"conditions": "A431, 72 h proliferation, read-out: EGFR WT A431 GI50"}, "[11]": {"conditions": "OCI-LY-10 cells, 72 h, CellTiter-Glo"}, "[12]": {"conditions": "TMD-8 cells, 72 h, CellTiter-Glo"}, "[13]": {"conditions": "Ri-1 cells, 72 h, CellTiter-Glo"}, "[14]": {"conditions": "read-out: EGFR Exon20 NPH insertion GI50 (nM)"}, "[15]": {"conditions": "read-out: EGFR Exon20 ASV insertion GI50 (nM)"}, "[16]": {"conditions": "read-out: EGFR L858R and T790M mutation GI50 (nM)"}, "[17]": {"conditions": "read-out: Her2 Exon 20 YVMA insertion GI50 (nM)"}, "[18]": {"conditions": "read-out: EGFR WT A431 GI50 (nM)"}}, "note": "Like-named read-outs stand apart in the source and are kept apart here.", "data": [{"compound": "C=CC(=O)Nc1cc(Nc2ncnc(Nc3ccccc3C3(O)COC3)n2)c(OC)cc1N(C)CCN(C)C", "note": "[Compound 10, N-(2-((2-(dimethylamino)ethyl)(methyl)amino)-5-(4-(2-(3-hydroxyoxetan-3-yl)phenylamino)-1,3,5-triazin-2-ylamino)-4-methoxyphenyl)acrylamide]", "values": [{"measurement": "IC50", "setting": "[1]", "result": 119, "unit": "nM"}, {"measurement": "IC50", "setting": "[2]", "result": 73.4, "unit": "nM"}, {"measurement": "IC50", "setting": "[3]", "result": 231, "unit": "nM"}, {"measurement": "GI50", "setting": "Ba/F3 EGFR NPH ins cells; [6]", "result": 189, "unit": "nM"}, {"measurement": "GI50", "setting": "Ba/F3 EGFR ASV ins cells; [7]", "result": 198, "unit": "nM"}, {"measurement": "GI50", "setting": "[4]; [8]", "result": 76.3, "unit": "nM"}, {"measurement": "GI50", "setting": "[5]; [9]", "result": 274, "unit": "nM"}, {"measurement": "GI50", "setting": "WT EGFR cell line A-431; [10]", "result": 79.4, "unit": "nM"}, {"measurement": "GI50", "setting": "OCI-LY-10 cells; [11]", "result": "> 3000", "unit": "nM"}, {"measurement": "GI50", "setting": "TMD-8 cells; [12]", "result": "> 3000", "unit": "nM"}, {"measurement": "GI50", "setting": "Ri-1 cells; [13]", "result": "> 3000", "unit": "nM"}, {"measurement": "GI50", "setting": "DB cells; DB cells, CellTiter-Glo", "result": "> 3000", "unit": "nM"}]}, {"compound": "C=CC(=O)Nc1cc(Nc2ncc(Cl)c(Nc3cc(Cl)c(F)cc3C(C)(C)O)n2)c(OC)cc1N(C)CCN(C)C", "note": "[Compound 78, N-(5-(5-chloro-4-(5-chloro-4-fluoro-2-(2-hydroxypropan-2-yl)phenylamino)pyrimidin-2-ylamino)-2-((2-(dimethylamino)ethyl)(methyl)amino)-4-methoxyphenyl)acrylamide]", "values": [{"measurement": "IC50", "setting": "[3]", "result": 19.7, "unit": "nM"}, {"measurement": "GI50", "setting": "Ba/F3 EGFR NPH ins cells; [6]", "result": 60, "unit": "nM"}, {"measurement": "GI50", "setting": "Ba/F3 EGFR ASV ins cells; [7]", "result": 35.7, "unit": "nM"}, {"measurement": "GI50", "setting": "[4]; [8]", "result": 1.4, "unit": "nM"}, {"measurement": "GI50", "setting": "[5]; [9]", "result": 49.2, "unit": "nM"}, {"measurement": "GI50", "setting": "WT EGFR cell line A-431; [10]", "result": 21.5, "unit": "nM"}, {"measurement": "GI50", "setting": "OCI-LY-10 cells; [11]", "result": 6.2, "unit": "nM"}, {"measurement": "GI50", "setting": "TMD-8 cells; [12]", "result": 10.3, "unit": "nM"}, {"measurement": "GI50", "setting": "Ri-1 cells; [13]", "result": 77.8, "unit": "nM"}, {"measurement": "GI50", "setting": "DB cells; DB cells, CellTiter-Glo", "result": "> 3000", "unit": "nM"}]}, {"compound": "C=CC(=O)Nc1cc(Nc2nccc(-c3cn(C)c4ccccc34)n2)c(OC)cc1N(C)CCN(C)C", "note": "[AZD9291, osimertinib, reference compound]", "values": [{"measurement": "GI50", "setting": "Ba/F3 EGFR NPH ins cells; [14]", "result": 177, "unit": "nM"}, {"measurement": "GI50", "setting": "Ba/F3 EGFR ASV ins cells; [15]", "result": 207, "unit": "nM"}, {"measurement": "GI50", "setting": "[4]; [16]", "result": 14.5, "unit": "nM"}, {"measurement": "GI50", "setting": "[5]; [17]", "result": 294, "unit": "nM"}, {"measurement": "GI50", "setting": "WT EGFR cell line A-431; [18]", "result": 43.7, "unit": "nM"}, {"measurement": "GI50", "setting": "OCI-LY-10 cells", "result": 1040, "unit": "nM"}, {"measurement": "GI50", "setting": "TMD-8 cells", "result": 1090, "unit": "nM"}, {"measurement": "GI50", "setting": "Ri-1 cells", "result": 2050, "unit": "nM"}, {"measurement": "GI50", "setting": "DB cells", "result": 1020, "unit": "nM"}]}, {"compound": "CCOc1cc2ncc(C#N)c(Nc3ccc(OCc4ccccn4)c(Cl)c3)c2cc1NC(=O)/C=C/CN(C)C", "note": "[Neratinib, reference compound]", "values": [{"measurement": "GI50", "setting": "Ba/F3 EGFR NPH ins cells; [14]", "result": 700, "unit": "nM"}, {"measurement": "GI50", "setting": "Ba/F3 EGFR ASV ins cells; [15]", "result": 88, "unit": "nM"}, {"measurement": "GI50", "setting": "[4]; [16]", "result": 110, "unit": "nM"}, {"measurement": "GI50", "setting": "[5]; [17]", "result": 5.2, "unit": "nM"}, {"measurement": "GI50", "setting": "WT EGFR cell line A-431; [18]", "result": 15.9, "unit": "nM"}]}, {"compound": "C=CC(=O)Nc1cc(Nc2ncnc(Nc3ccc(C)nc3C(C)(C)O)n2)c(OC)cc1N(C)CCN(C)C", "note": "[Compound 7, N-(2-((2-(dimethylamino)ethyl)(methyl)amino)-5-(4-(2-(2-hydroxypropan-2-yl)-6-methylpyridin-3-ylamino)-1,3,5-triazin-2-ylamino)-4-methoxyphenyl) acrylamide]", "values": [{"measurement": "IC50", "setting": "[1]", "result": 46.6, "unit": "nM"}, {"measurement": "IC50", "setting": "[2]", "result": 40.5, "unit": "nM"}, {"measurement": "IC50", "setting": "[3]", "result": 19.7, "unit": "nM"}, {"measurement": "GI50", "setting": "Ba/F3 EGFR NPH ins cells; [6]", "result": 212, "unit": "nM"}, {"measurement": "GI50", "setting": "Ba/F3 EGFR ASV ins cells; [7]", "result": 145, "unit": "nM"}, {"measurement": "GI50", "setting": "[4]; [8]", "result": 25, "unit": "nM"}, {"measurement": "GI50", "setting": "[5]; [9]", "result": 161, "unit": "nM"}, {"measurement": "GI50", "setting": "WT EGFR cell line A-431; [10]", "result": 37.9, "unit": "nM"}, {"measurement": "GI50", "setting": "OCI-LY-10 cells; [11]", "result": 130, "unit": "nM"}, {"measurement": "GI50", "setting": "TMD-8 cells; [12]", "result": 188, "unit": "nM"}, {"measurement": "GI50", "setting": "Ri-1 cells; [13]", "result": "> 3000", "unit": "nM"}, {"measurement": "GI50", "setting": "DB cells; DB cells, CellTiter-Glo", "result": "> 3000", "unit": "nM"}]}, {"compound": "C=CC(=O)N1CCC(Oc2cc3c(Nc4ccc(Cl)c(Cl)c4F)ncnc3cc2OC)CC1", "note": "[Poziotinib, reference compound]", "values": [{"measurement": "IC50", "setting": "[3]", "result": 0.8, "unit": "nM"}, {"measurement": "GI50", "setting": "Ba/F3 EGFR NPH ins cells; [6]", "result": 7.2, "unit": "nM"}, {"measurement": "GI50", "setting": "Ba/F3 EGFR ASV ins cells; [7]", "result": 4.1, "unit": "nM"}, {"measurement": "GI50", "setting": "[4]; [8]", "result": 19.4, "unit": "nM"}, {"measurement": "GI50", "setting": "[5]; [9]", "result": 4.7, "unit": "nM"}, {"measurement": "GI50", "setting": "WT EGFR cell line A-431; [10]", "result": 0.5, "unit": "nM"}, {"measurement": "GI50", "setting": "OCI-LY-10 cells; [11]", "result": 1000, "unit": "nM"}, {"measurement": "GI50", "setting": "TMD-8 cells; [12]", "result": 2410, "unit": "nM"}, {"measurement": "GI50", "setting": "Ri-1 cells; [13]", "result": 1230, "unit": "nM"}, {"measurement": "GI50", "setting": "DB cells; DB cells, CellTiter-Glo", "result": "> 3000", "unit": "nM"}]}]}
